Test system: Soybean (FG72 trait)
Experiment: in-field research trial of herbicidal treatment effect on soybean yield
Format: in vivo
Conditions: isoxaflutole 35 g ai/ha soil treatment pre-emergence, then one application of glyphosate 1060 g ai/ha plus ammonium sulfate 2850 g ai/ha; weed free check = 100%; averaged across four replications; moisture standardized; Fithian, Ill.
Source text: Soybean seed was secured for an in-field research trial. The soybean seed is genetically modified to be tolerant to applications of HPPD (4-hydroxyphenyl-pyruvate-dioxygenase) inhibiting herbicides (example: BALANCE PRO or isoxaflutole) and glyphosate (ROUNDUP ORIGINAL MAX). The trait is known as FG72.
The site was conventionally tilled and free of weeds at the time of planting. The soybean seed was planted in 30″ rows on Jun. 18, 2008. Broadcast spray treatments of a first herbicidal treatment composition comprising isoxaflutole were applied using a tractor mounted sprayer on Jun. 20, 2008. All areas of the field, including a weed-free check (control) that was not treated with isoxaflutole, were additionally treated on Jun. 20, 2008, with PURSUIT PLUS herbicide, a combination of 2.24% imazethapyr and 30.24% pendimethalin, available from BASF. The application was made prior to soybean and weed emergence.
To avoid any interference of weed effects on yield in the trial, the entire trial site was kept weed free for the entire growing season. […]
The trial was evaluated for herbicidal treatment effect on yield. […] Data was entered into and analyzed with ARM computer software. […] Treatment differences were determined using least significant differences (LSD, P=0.05).

CS(=O)(=O)c1cc(C(F)(F)F)ccc1C(=O)c1cnoc1C1CC1 [isoxaflutole, 5-cyclopropyl-4-(2-methylsulfonyl-4-trifluoromethylbenzoyl) isoxazole]
soybean seed yield as percent of the weed free check: 108.5%
